Data on 11 molecules can be found in patent US8648066B2 (Exelixis, Inc., priority 2009, dated 2014).

As usually defined, the pIC50 is the IC50 on a negative log10 scale, so that one unit is a factor of ten.

pIC50: −log10 of the molar value.

The target in this assay is mTOR/GbL/Raptor (mTORC1) (Homo sapiens, UniProt P42345). Nature of the assay: mTOR/GbL/Raptor (mTORC1) ELISA assay. The format is biochemical. To be noted: phosphorylation of 4E-BP1; 0.2 nM mTORC1, 10 μM ATP; read-out: IC50 in this assay (mTORC1 ELISA). Put shortly: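 ELISA read-out: phospho-4E-BP1 captured on Ni-chelate plates and detected with anti-phospho antibody plus HRP-anti-IgG luminescence. The kinase step ran 120 min at ambient temperature with 0.2 nM human mTORC1, 10 µM ATP, 50 nM His-4E-BP1, 10 mM MnCl2, pH 7.2 HEPES.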
(An ELISA detects its analyte on a solid surface through an enzyme-linked reagent.)

Turning to `Cc1nc2cc(-c3ccc4c(c3)CN(c3nc(CN(C)C)nc(C)c3-c3ccccc3)CCO4)ccc2[nH]1` [Example 681, N,N-dimethyl-1-{4-methyl-6-[7-(2-methyl-1H-benzimidazol-5-yl)-2,3-dihydro-1,4-benzoxazepin-4(5H)-yl]-5-phenylpyrimidin-2-yl}methanamine], the pIC50 was 6.60 to 7.30.

Consider `CC1(C)CCc2ncnc(N3CCOc4ccc(-c5cnc(N)c(S(N)(=O)=O)c5)cc4C3)c2C1` [Example 399, 2-amino-5-[4-(6,6-dimethyl-5,6,7,8-tetrahydroquinazolin-4-yl)-2,3,4,5-tetrahydro-1,4-benzoxazepin-7-yl]pyridine-3-sulfonamide], for which the negative logarithm of the IC50 (pIC50) was at least 8.00.

For the molecule `Cc1nc2cc(-c3ccc4c(c3)CN(c3nc(C(C)N)nc5c3CC(C)(C)CC5)CCO4)ccc2[nH]1` (centres unmarked) [Example 668, 1-{6,6-dimethyl-4-[7-(2-methyl-1H-benzimidazol-5-yl)-2,3-dihydro-1,4-benzoxazepin-4(5H)-yl]-5,6,7,8-tetrahydroquinazolin-2-yl}ethanamine], the pIC50 was at least 8.00.

Turning to `CCNc1nc2ccc(-c3ccc4c(c3)CN(c3cc(Nc5ccccc5)ncn3)CCO4)cc2[nH]1` [Example 275, N-ethyl-6-{4-[6-(phenylamino)pyrimidin-4-yl]-2,3,4,5-tetrahydro-1,4-benzoxazepin-7-yl}-1H-benzimidazol-2-amine], the pIC50 is 6.60 to 7.30.

`CC1(C)CCc2ncnc(N3CCOc4ccc(-c5cnc(N)c(S(=O)(=O)N6CC7(CNC7)C6)c5)cc4C3)c2C1` [Example 432, 3-(2,6-diazaspiro[3.3]hept-2-ylsulfonyl)-5-[4-(6,6-dimethyl-5,6,7,8-tetrahydroquinazolin-4-yl)-2,3,4,5-tetrahydro-1,4-benzoxazepin-7-yl]pyridin-2-amine]: the pIC50 was 7.30 to 8.00.

As for `CC1(C)CCc2ncnc(N3CCOc4ccc(-c5cnc(N)c(S(=O)(=O)NC[C@@H]6CCCNC6)c5)cc4C3)c2C1` [Example 386, 2-amino-5-[4-(6,6-dimethyl-5,6,7,8-tetrahydroquinazolin-4-yl)-2,3,4,5-tetrahydro-1,4-benzoxazepin-7-yl]-N-[(3R)-piperidin-3-ylmethyl]pyridine-3-sulfonamide], the pIC50 is 6.00 to 6.60.

Take `c1ccc2c(N3CCOc4ccc(-c5ccc6cn[nH]c6c5)cc4C3)ccnc2c1` [Example 136, 7-(1H-indazol-6-yl)-4-quinolin-4-yl-2,3,4,5-tetrahydro-1,4-benzoxazepine]: the pIC50 was 5.70 to 6.00.

Turning to `COc1ccc2c(N3CCOc4ccc(-c5cnc6sc(N)nc6c5)cc4C3)nc(C)nc2c1` [Example 661, 6-{4-[2-methyl-7-(methyloxy)quinazolin-4-yl]-2,3,4,5-tetrahydro-1,4-benzoxazepin-7-yl}[1,3]thiazolo[5,4-b]pyridin-2-amine], the pIC50 was 6.00 to 6.60.

For the molecule `COc1ccc2c(N3CCOc4ccc(-c5cnc6[nH]cnc6c5)cc4C3)nc(CN(C)C)nc2c1` [Example 691, 1-{4-[7-(3H-imidazo[4,5-b]pyridin-6-yl)-2,3-dihydro-1,4-benzoxazepin-4(5H)-yl]-7-(methyloxy)quinazolin-2-yl}-N,N-dimethylmethanamine], the pIC50 is 5.70 to 6.00.

As for `Cc1nc2ncc(-c3ccc4c(c3)CN(c3ncnc5c3CC(F)(F)CC5)CCO4)cc2[nH]1` [Example 471, 4-(6,6-difluoro-5,6,7,8-tetrahydcroquinazolin-4-yl)-7-(2-methyl-1H-imidazo[4,5-b]pyridin-6-yl)-2,3,4,5-tetrahydro-1,4-benzoxazepine], the pIC50 is 6.60 to 7.30.

On to `COc1c(OCCN(C)C)ccc2c(N3CCOc4ccc(-c5ccc6nc(C)[nH]c6c5)cc4C3)ncnc12` [Example 165, N,N-dimethyl-2-({4-[7-(2-methyl-1H-benzimidazol-6-yl)-2,3-dihydro-1,4-benzoxazepin-4(5H)-yl]-8-(methyloxy)quinazolin-7-yl}oxy)ethanamine], for which the pIC50 was at most 5.70.
